Consider five molecules from US20070299110A1, “Novel Tetrazole Derivatives as Positive Allosteric Modulators of Metabotropic Glutamate” (priority 2004, published 2007).

Data set [1] concerns Male C57BL6/j mice. Put plainly: Amphetamine-induced locomotor activity in mice (amphetamine model of schizophrenia). The format is in vivo. Particulars: 30 mg/kg ip, 30 minutes before amphetamine sulphate 3.0 mg/kg s.c., distance traveled measured for 60 minutes, p<0.01 vs vehicle-amphetamine. The text has this:
Amphetamine-induced increases in locomotor ambulation are well known and are widely used as a model of the positive symptoms of schizophrenia. This model is based on evidence that amphetamine increases motor behaviors and can induce a psychotic state in humans (Yui et al. (2000) Ann NY Acad Sci 914:1-12). Further, it is well known that amphetamine-induced increases in locomotor activity are blocked by antipsychotics drugs that are effective in the treatment of schizophrenia (Ant (1995) Eur J Pharmacol 283:55-62). […]
Assessment of locomotor (ambulatory) activity: The effects of compounds on amphetamine-induced locomotor activation in mice were tested. […] Locomotor activity (ambulations) was monitored by a videotracking system (VideoTrack, Viewpoint, Champagne au Mont d'Or, France) that recorded the ambulatory movements of mice. […] Mice were placed into the locomotor boxes immediately after the amphetamine injection and their locomotor activity, defined as the distance traveled in centimeters (cm), was measured for 60 minutes. […]
Statistical analyses: Statistical analyses were performed using GraphPad PRISM statistical software (GraphPad, San Diego, Calif., USA). Data were analyzed using an unpaired t-test. […]

Molecule `O=C(c1ccc(F)cc1)N1CCCC(n2nnc(-c3ccc(F)cc3)n2)C1` (stereo not shown) [Example 2, (4-Fluoro-phenyl)-{3-[5-(4-fluoro-phenyl)-tetrazol-2-yl]-piperidin-1-yl}-methanone] came in with a melting point of 137 to 139 °C.
The same measure, in the same setting: the figure for `O=C(c1ccc(F)c(F)c1)N1CCC[C@H](n2nnc(-c3ccc(F)cc3)n2)C1` [Example 24, (3,4-Difluoro-phenyl)-{(S)-3-[5-(4-fluoro-phenyl)-tetrazol-2-yl]-piperidin-1-yl}-methanone] is 123 to 128 °C; for `O=C(c1ccc(F)cc1F)N1CCC[C@H](n2nnc(-c3ccc(F)cc3)n2)C1` [Example 25, (2,4-Difluoro-phenyl)-{(S)-3-[5-(4-fluoro-phenyl)-tetrazol-2-yl]-piperidin-1-yl}-methanone] it is 65 to 68 °C.
Turning to `O=C(c1ccc(F)nc1)N1CCC[C@H](n2nnc(-c3ccc(F)cc3)n2)C1` [Example 21, {(S)-3-[5-(4-Fluoro-phenyl)-tetrazol-2-yl]-piperidin-1-yl}-(6-fluoro-pyridin-3-yl)-methanone], the melting point lay within 109 to 110 °C.
For `O=C(c1ccc(F)cc1)N1CCC[C@H](n2nnc(-c3ccc(F)cc3)n2)C1` [Example 1, (4-Fluoro-phenyl)-{(S)-3-[5-(4-fluoro-phenyl)-tetrazol-2-yl]-piperidin-1-yl}-methanone], the melting point was in the range of 109 to 110 °C. Besides, the “increase in locomotor activity induced by amphetamine” value in data set [1] (listed as #1) is reported as “significantly attenuate”. Also, the “increase in locomotor activity induced by amphetamine” value in data set [1] (listed as example 1) was “significantly attenuated”.

The melting point is the temperature, or range, at which the solid turns liquid.
